Experimental data taken from US8791132B2, “Compounds and methods for treatment of hypertension” (Medivation Technologies, Inc., priority 2011, dated 2014).
Like-named read-outs stand apart in the source and are kept apart here. Blank lines part the entries; values can stand above or below the molecule they belong to.

Assays:
[1] = target: T1, human recombinant adrenergic α2B receptor (Homo sapiens, UniProt P18089); assay: Radioligand binding, adrenergic α2B ([3H]Rauwolscine); conditions: for Percentage inhibition of ligand binding, Adrenergic α2B (0.03 μM) / Percentage inhibition of ligand binding, Adrenergic α2B: 0.03 µM; for Ki: read-out: Ki α2B
T1 construct: expressed in transfected cells; host or cells: CHO-K1
T1 sequence (P18089 1-450): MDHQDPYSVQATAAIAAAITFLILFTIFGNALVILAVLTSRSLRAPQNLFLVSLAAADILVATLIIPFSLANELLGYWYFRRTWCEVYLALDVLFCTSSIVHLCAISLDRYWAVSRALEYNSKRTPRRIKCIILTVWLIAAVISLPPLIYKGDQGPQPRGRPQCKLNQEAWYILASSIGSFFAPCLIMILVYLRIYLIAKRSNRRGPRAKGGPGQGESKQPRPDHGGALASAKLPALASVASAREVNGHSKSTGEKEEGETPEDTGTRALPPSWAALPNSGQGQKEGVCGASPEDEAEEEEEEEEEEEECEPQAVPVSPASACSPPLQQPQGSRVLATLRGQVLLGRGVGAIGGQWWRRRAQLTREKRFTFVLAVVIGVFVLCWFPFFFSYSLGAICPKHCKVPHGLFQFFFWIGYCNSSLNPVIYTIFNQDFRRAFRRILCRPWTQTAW
Summary of the method: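 Values are percent inhibition of specific radioligand binding. The receptor, expressed in CHO-K1 cells, was exposed to 2.5 nM [3H]Rauwolscine at 25° C for 60 min, with 10 μM Prazosin marking non-specific binding.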

[2] = target: T2, human recombinant adrenergic α2A receptor (Homo sapiens, UniProt P08913); assay: Radioligand binding, adrenergic α2A ([3H]MK-912); conditions: for Percentage inhibition of ligand binding, Adrenergic α2A (0.1 μM) / Percentage inhibition of ligand binding, Adrenergic α2A: 0.1 µM
T2 construct: expressed in transfected cells; host or cells: insect Sf9 cells
T2 sequence (P08913 1-465): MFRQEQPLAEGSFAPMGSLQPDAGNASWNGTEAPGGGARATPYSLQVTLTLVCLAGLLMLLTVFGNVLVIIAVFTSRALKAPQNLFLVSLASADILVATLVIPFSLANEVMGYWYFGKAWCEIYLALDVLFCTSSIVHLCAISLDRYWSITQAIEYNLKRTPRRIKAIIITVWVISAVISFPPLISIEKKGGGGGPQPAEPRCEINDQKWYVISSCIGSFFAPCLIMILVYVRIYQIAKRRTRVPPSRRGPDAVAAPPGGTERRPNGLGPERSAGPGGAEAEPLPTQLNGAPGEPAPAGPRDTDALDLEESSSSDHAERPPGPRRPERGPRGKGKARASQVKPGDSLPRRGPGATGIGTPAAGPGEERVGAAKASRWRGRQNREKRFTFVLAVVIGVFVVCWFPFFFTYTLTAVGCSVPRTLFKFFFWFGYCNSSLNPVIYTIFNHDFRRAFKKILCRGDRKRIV
Summary of the method: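 Displacement of 1 nM [3H]MK-912 from receptor produced in insect Sf9 cells was measured after 60 min at 25 °C. Readout: percent inhibition of specific binding.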

[3] = target: T3, rat adrenergic α1B receptor (Rattus norvegicus, UniProt P15823); assay: Radioligand binding, adrenergic α1B ([3H]Prazosin); conditions: for Percentage inhibition of ligand binding, Adrenergic α1B (0.1 μM) / Percentage inhibition of ligand binding, Adrenergic α1B: 0.1 µM
T3 construct: rat adrenergic α1B receptor obtained from Wistar Rat liver; from tissue; host or cells: Wistar rat liver
T3 sequence (P15823 1-515): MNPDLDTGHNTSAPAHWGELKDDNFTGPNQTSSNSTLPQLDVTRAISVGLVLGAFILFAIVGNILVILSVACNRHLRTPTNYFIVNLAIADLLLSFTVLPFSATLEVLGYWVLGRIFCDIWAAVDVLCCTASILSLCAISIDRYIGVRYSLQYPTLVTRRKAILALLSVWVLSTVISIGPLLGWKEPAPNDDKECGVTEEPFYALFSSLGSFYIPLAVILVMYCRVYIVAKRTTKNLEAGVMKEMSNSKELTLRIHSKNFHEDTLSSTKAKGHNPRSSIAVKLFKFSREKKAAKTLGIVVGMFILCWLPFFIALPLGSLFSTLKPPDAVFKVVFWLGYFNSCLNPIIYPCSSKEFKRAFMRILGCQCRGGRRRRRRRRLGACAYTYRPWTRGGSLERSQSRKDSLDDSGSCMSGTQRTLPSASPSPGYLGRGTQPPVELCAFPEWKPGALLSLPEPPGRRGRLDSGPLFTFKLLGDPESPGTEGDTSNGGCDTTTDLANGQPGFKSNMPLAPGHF
Summary of the method: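 Rat α1B receptor from Wistar rat liver was incubated with 0.25 nM [3H]prazosin for 60 min at 25 °C in 50 mM Tris-HCl, pH 7.4, 0.5 mM EDTA. Non-specific binding was defined with 10 μM phentolamine. Bound radioligand was measured by filtration and counting, reported as percent inhibition of specific binding.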

[4] = compound at 0.03 μM, [3H]Rauwolscine, repeat datapoints each shown
[5] = compound at 0.1 μM, [3H]MK-912, repeat datapoints each shown
[6] = compound at 0.1 μM, [3H]Prazosin, repeat datapoints each shown
[7] = compound at 0.03 μM, [3H]Rauwolscine, repeat assays, each datapoint shown
[8] = compound at 0.03 μM, [3H]Rauwolscine, repeat assays, each datapoint shown, read-out: Percentage inhibition of ligand binding, Adrenergic α2B
[9] = compound at 0.1 μM, [3H]Prazosin, repeat assays, each datapoint shown
[10] = compound at 0.1 μM, [3H]Prazosin, repeat assays, each datapoint shown, read-out: Percentage inhibition of ligand binding, Adrenergic α1B
[11] = compound at 0.1 μM, [3H]MK-912, repeat assays, each datapoint shown
[12] = 0.03 μM compound, read-out: Percentage inhibition of ligand binding, Adrenergic α2B
[13] = 0.1 μM compound, read-out: Percentage inhibition of ligand binding, Adrenergic α2A
[14] = 0.1 μM compound, read-out: Percentage inhibition of ligand binding, Adrenergic α1B
[15] = read-out: Percentage inhibition of ligand binding, Adrenergic α2B (0.03 μM), compound at 0.03 μM, [3H]Rauwolscine, repeat datapoints each shown
[16] = read-out: Percentage inhibition of ligand binding, Adrenergic α2A (0.1 μM), compound at 0.1 μM, [3H]MK-912, repeat datapoints each shown
[17] = read-out: Percentage inhibition of ligand binding, Adrenergic α1B (0.1 μM), compound at 0.1 μM, [3H]Prazosin, repeat datapoints each shown
[18] = compound at 0.1 μM, [3H]MK-912, repeat assays, each datapoint shown, read-out: Percentage inhibition of ligand binding, Adrenergic α2A

Compound: Cc1ccc2c(c1)c1c(n2CC(N=[N+]=[N-])c2ccncc2)CCN(C)C1 (racemic) [V-1b, 5-(2-azido-2-(pyridin-4-yl)ethyl)-2,3,4,5-tetrahydro-2,8-dimethyl-1H-pyrido[4,3-b]indole]
Percentage inhibition of ligand binding, Adrenergic α2B (0.03 μM) [1, 4]: 102% | Percentage inhibition of ligand binding, Adrenergic α2A (0.1 μM) [2, 5]: 29% | Percentage inhibition of ligand binding, Adrenergic α1B (0.1 μM) [3, 6]: 57%

Compound: Cc1ccc2c(c1)c1c(n2CC(C)(O)c2cccnc2)CN(C)CC1 (single isomer, unassigned) [14a, 1-(2,6-dimethyl-1,2,3,4-tetrahydro-β-carbolin-9-yl)-2-pyridin-3-yl-propan-2-ol]
Percentage inhibition of ligand binding, Adrenergic α2B [1, 7]: 98% | inhibition at 0.03 µM [1, 8]: 97% | Ki [1]: 1.92 nM | Ki [2]: 123 nM | inhibition at 0.03 µM ([3]; compound at 0.03 μM, [3H]Prazosin, repeat assays, each datapoint shown, read-out: Percentage inhibition of ligand binding, Adrenergic α1B): 17% | Percentage inhibition of ligand binding, Adrenergic α1B [3, 9]: 44% | inhibition at 0.1 µM [3, 10]: 43%

Compound: Cc1ccc2c(c1)c1c(n2CC(C)(OCC(=O)O)c2cccnc2)CCN(C)C1 (single isomer, unassigned) [V-14b, 2-((1-(2,8-dimethyl-3,4-dihydro-1H-pyrido[4,3-b]indol-5(2H)-yl)-2-(pyridin-3-yl)propan-2-yl)oxy)acetic acid]
Percentage inhibition of ligand binding, Adrenergic α2B (0.03 μM) [1, 4]: 0% | Percentage inhibition of ligand binding, Adrenergic α2A (0.1 μM) [2, 5]: 3% | Percentage inhibition of ligand binding, Adrenergic α1B (0.1 μM) [3, 6]: 2%

Compound: C=CCN1CCc2c(c3cc(C)ccc3n2CC(O)c2ccncc2)C1 (stereo not drawn) [II-63, 2-(2-allyl-1,2,3,4-tetrahydro-8-methylpyrido[4,3-b]indol-5-yl)-1-(pyridin-4-yl)ethanol]
inhibition at 0.03 µM [1, 12]: 90% | inhibition at 0.1 µM [2, 13]: 39% | inhibition at 0.1 µM [3, 14]: 55%

Compound: CN1CCc2c(c3ccncc3n2CC(O)c2ccncc2)C1 (stereo not drawn) [II-242]
inhibition at 0.03 µM [1, 15]: 3% | inhibition at 0.1 µM [2, 16]: 2% | inhibition at 0.1 µM [3, 17]: 4%

Compound: Cc1ccc2c(c1)c1c(n2CC(O)c2ccncc2)CN2CCC1C2 (stereo not drawn) [II-69]
inhibition at 0.03 µM [1, 12]: 14% | inhibition at 0.1 µM [2, 13]: 11% | inhibition at 0.1 µM [3, 14]: 45%

Compound: Cc1ccc2c(c1)c1c(n2CC(O)c2ccncc2)CC2CCCN2C1 (single isomer, unassigned) [76d]
Percentage inhibition of ligand binding, Adrenergic α2B [1, 7]: 91% | Percentage inhibition of ligand binding, Adrenergic α2A [2, 11]: 40% | Percentage inhibition of ligand binding, Adrenergic α1B [3, 9]: 51%

Compound: Cc1ccc2c(c1)c1c(n2CC(O)c2ccncc2)CCN2CCCCC12 (single isomer, unassigned) [47d]
Percentage inhibition of ligand binding, Adrenergic α2B [1, 7]: 30% | Percentage inhibition of ligand binding, Adrenergic α2A [2, 11]: −3% | Percentage inhibition of ligand binding, Adrenergic α1B [3, 9]: 5%

Compound: CN1CCc2c(c3cc(C(F)(F)F)ccc3n2CC(O)c2cccnc2)C1 (single isomer, unassigned) [59b]
Percentage inhibition of ligand binding, Adrenergic α2B [1, 7]: 31% | Percentage inhibition of ligand binding, Adrenergic α2A [2, 11]: 12% | Percentage inhibition of ligand binding, Adrenergic α1B [3, 9]: 7%

Compound: OCc1ccc2c(c1)c1c(n2CC(O)c2ccncc2)CCNC1 (stereo not drawn) [II-81, 2-(8-hydroxymethyl-1,2,3,4-tetrahydro-pyrido[4,3-b]indol-5-yl)-1-pyridin-4-yl-ethanol]
inhibition at 0.03 µM [1, 12]: -9% | inhibition at 0.1 µM [2, 13]: 15% | inhibition at 0.1 µM [3, 14]: -1%

Compound: C/C(=C/n1c2c(c3cc(C)ccc31)CN(C)CC2)c1cn[nH]c1 [compound 80]
inhibition at 0.03 µM [1, 8]: 81% | inhibition at 0.1 µM [2, 18]: 12% | inhibition at 0.1 µM [3, 10]: 49%

The remaining lines, values ahead:

Percentage inhibition of ligand binding, Adrenergic α2B [1, 7]: 93% | Percentage inhibition of ligand binding, Adrenergic α2A [2, 11]: 19% | inhibition at 0.1 µM [3, 10]: 93%
Compound: CN1CCc2c(n(CC(O)c3ccncc3)c3ccc(Cl)cc23)CC1 (stereo not drawn) [compound 15, 2-(9-chloro-3-methyl-2,3,4,5-tetrahydroazepino[4,5-b]indol-6(1H)-yl)-1-(pyridin-4-yl)ethanol]

Percentage inhibition of ligand binding, Adrenergic α2B [1, 7]: 14% | Percentage inhibition of ligand binding, Adrenergic α2A [2, 11]: 11% | Percentage inhibition of ligand binding, Adrenergic α1B [3, 9]: 28%
Compound: Cc1cnc2c(c1)c1c(n2CC(O)c2ccncc2)CCN(C)C1 (single isomer, unassigned) [55a, 2-(3,6-dimethyl-5,6,7,8-tetrahydro-1,6,9-triaza-fluoren-9-yl)-1-pyridin-4-yl-ethanol]

Percentage inhibition of ligand binding, Adrenergic α2B (0.03 μM) [1, 4]: 49% | Percentage inhibition of ligand binding, Adrenergic α2A (0.1 μM) [2, 5]: 0% | Percentage inhibition of ligand binding, Adrenergic α1B (0.1 μM) [3, 6]: 17%
Compound: CN1CCc2c(c3cc(Cl)ccc3n2CC(C)(O)c2ccc(C(F)(F)F)nc2)C1 (single isomer, unassigned) [143b]

inhibition at 0.03 µM [1, 15]: -4% | inhibition at 0.1 µM [2, 16]: 81% | inhibition at 0.1 µM [3, 17]: -7%
Compound: Cc1ccc(CCn2c3c(c4c(Br)ccc(Br)c42)CN(C)CC3)cn1 [II-251]

inhibition at 0.03 µM [1, 15]: 5% | inhibition at 0.1 µM [2, 16]: 47% | inhibition at 0.1 µM [3, 17]: -2%
Compound: Cc1ccc(CCn2c3c(c4c(Cl)ccc(Cl)c42)CCN(C)CC3)cn1 [II-246, 7,10-dichloro-1,2,3,4,5,6-hexahydro-3-methyl-6-(2-(6-methylpyridin-3-yl)ethyl)azepino [4,5-b]indole]

Percentage inhibition of ligand binding, Adrenergic α2B (0.03 μM) [1, 4]: 61% | Ki [1]: 9.44 nM | inhibition at 0.03 µM [1, 15]: 58% | inhibition at 0.1 µM ([1]; read-out: Percentage inhibition of ligand binding, Adrenergic α2B (0.1 μM), compound at 0.1 μM, [3H]Rauwolscine, repeat datapoints each shown): 82% | inhibition at 0.1 µM [2, 16]: 19% | Percentage inhibition of ligand binding, Adrenergic α1B (0.1 μM) [3, 6]: 93% | inhibition at 0.03 µM ([3]; read-out: Percentage inhibition of ligand binding, Adrenergic α1B (0.03 μM), compound at 0.03 μM, [3H]Prazosin, repeat datapoints each shown): 79% | inhibition at 0.1 µM [3, 17]: 91%
Compound: Cc1cnc2c(c1)c1c(n2CCc2ccc(C(N)=O)nc2)CCN2CCCC12 (stereo not drawn) [II-243, 5-[2-(9-methyl-1,2,3,4,5,10c-hexahydro-3a,6,7-triaza-cyclopenta[c]fluoren-6-yl)-ethyl]-pyridine-2-carboxylic acid amide]

inhibition at 0.03 µM [1, 12]: 48% | inhibition at 0.1 µM [2, 13]: -2% | inhibition at 0.1 µM [3, 14]: 68%
Compound: Cc1ccc2c(c1)c1c(n2CC(O)c2ccc(O)c(O)c2)CCN(C)C1 (stereo not drawn) [II-88, 4-[2-(2,8-dimethyl-1,2,3,4-tetrahydro-pyrido[4,3-b]indol-5-yl)-1-hydroxy-ethyl]-benzene-1,2-diol]

inhibition at 0.1 µM ([1]; compound at 0.1 μM, [3H]Rauwolscine, repeat assays, each datapoint shown, read-out: Percentage inhibition of ligand binding, Adrenergic α2B): 62% | inhibition at 0.1 µM [2, 18]: 20% | inhibition at 0.1 µM [3, 10]: 9%
Compound: CCC(O)(Cn1c2c(c3cc(C)ccc31)CN(C)CC2)c1ccncc1 (stereo not drawn) [35a]
